Test results from BindingDB's records for doi:10.1016/s0960-894x(98)00316-3 (Nippon Roche Research Center, 1998).

Target: Lanosterol 14-alpha demethylase (Candida albicans) (UniProt P10613)
Experiment: In vitro inhibition of cytochrome P450 lanosterol C14 demethylase in Candida albicans CY1005

Lanosterol 14-alpha demethylase (Candida albicans), sequence (P10613 whole entry, looked up): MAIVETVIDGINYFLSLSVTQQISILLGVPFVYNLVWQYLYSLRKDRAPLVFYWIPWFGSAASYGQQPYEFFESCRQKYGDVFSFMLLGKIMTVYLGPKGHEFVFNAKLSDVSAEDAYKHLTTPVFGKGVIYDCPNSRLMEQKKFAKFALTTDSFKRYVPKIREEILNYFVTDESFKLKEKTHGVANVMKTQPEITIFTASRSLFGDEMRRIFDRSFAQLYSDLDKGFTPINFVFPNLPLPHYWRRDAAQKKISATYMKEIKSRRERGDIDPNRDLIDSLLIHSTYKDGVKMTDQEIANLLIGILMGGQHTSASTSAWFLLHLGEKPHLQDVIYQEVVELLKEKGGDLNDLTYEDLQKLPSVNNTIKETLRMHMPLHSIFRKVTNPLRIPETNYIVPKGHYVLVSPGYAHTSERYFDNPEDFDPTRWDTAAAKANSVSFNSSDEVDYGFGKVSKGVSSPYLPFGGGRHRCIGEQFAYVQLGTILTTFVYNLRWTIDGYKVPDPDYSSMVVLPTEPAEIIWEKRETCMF

| Compound | IC50 [µM] |
| --- | --- |
| CCc1ccc(CC[C@@H]2CCC(C)(C)C(OCCO)[C@H]2Cn2cncn2)cc1 (some centres not stated) | 0.083 |
| COC1[C@@H](Cn2cncn2)[C@H](COc2ccc(OC(F)(F)F)cc2)CCC1(C)C (some centres not stated) | 0.118 |
| CO/N=C1\[C@@H](Cn2cncn2)[C@H](COc2ccc(OC(F)(F)F)cc2)CCC1(C)C | 0.0563 |
| CC1(C)CC[C@@H](COc2ccc(OC(F)(F)F)cc2)[C@H](Cn2cncn2)C1OCCO (some centres not stated) | 0.0225 |
| CC1(C)CC[C@@H](COc2ccc(OC(F)(F)F)cc2)[C@H](Cn2cncn2)/C1=N\O | 0.13 |
| CCc1ccc(CC[C@@H]2CCC(C)(C)/C(=N/OC)[C@H]2Cn2cncn2)cc1 | 0.0868 |
| CCc1ccc(CC[C@@H]2CCC(C)(C)/C(=N/O)[C@H]2Cn2cncn2)cc1 | 0.0733 |
